Experimental data as given in the supplement of paper PMC6723410.

Tests used:
GUMC-403 [1] = assay: AC50 for reduction of cell viability; higher = less potent; details: library / dose series: MIPE library, 11-point 1:3 dilution; 48 h
GUMC-403 [2] = assay: viability at highest tested concentration (max response) relative to DMSO (% of DMSO control); higher = less cytotoxic; details: library / dose series: MIPE library, 11-point 1:3 dilution; top concentration 46.1 µM; 48 h
Method in brief: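 GUMC-403 papilloma cells, derived from a patient and expanded by conditional reprogramming, were dispensed at 700/well into 1536-well plates in 5 μL F + Y medium. A pin tool delivered 23 nL of each compound across an 11-point 1:3 dilution series for 48 h. CellTiter-Glo luminescence, read on a ViewLux, was normalised so that vehicle wells equalled 100% and empty wells 0%. Values report viability at the highest tested concentration relative to vehicle control.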

SMILES	AC50 for reduction of cell viability (GUMC-403 [1]) [nM]	viability (GUMC-403 [2])
COC(=O)Nc1ccc(-c2nc(N3CCOCC3)c3cnn(C4CCN(C(=O)OC)CC4)c3n2)cc1	26.4	13.8
CCCCOc1c(C(=O)c2c(F)cc(C)cc2F)cnc2[nH]ncc12	8330	75.8
CCN1CCN(CC1)CC(=O)NC2=CC=C(C3=C2C4=C(S3)C=CC=C4)C5=C6O\C(=C/C(=O)C6=CC=C5)N7CCOCC7	2960	58.7
Cc1c(CN2CCN(C(=O)[C@H](C)O)CC2)sc2c(N3CCOCC3)nc(-c3cnc(N)nc3)nc12	148	54.1
COC1=C2C[C@@H](C)C[C@H](OC)[C@H](O)[C@@H](C)/C=C(\C)[C@H](OC(N)=O)[C@@H](OC)/C=C/C=C(\C)C(=O)NC(=CC1=O)C2=O	4690	23.9
CN(C)c1ccc2cc(C(=O)N[C@@H](CCCNC(=N)CCl)C(=O)NCc3ccccc3)ccc2c1	20900	46.3
CC(C)CC(=O)Nc1n[nH]c2c1CN(C(=O)C1CCN(C)CC1)C2(C)C	1480	15.9
C1=C/COCc2cc(ccc2OCCN2CCCC2)Nc2nccc(n2)-c2cccc(c2)OCC/1	7430	76.3
CNC(=O)Nc1ccc(-c2nc(N3CC4CCC(C3)O4)c3cnn(C4CCC5(CC4)OCCO5)c3n2)cc1	3.32	62.9
NC(=O)Nc1cc(-c2cccc(F)c2)sc1C(=O)N[C@H]1CCCNC1	16600	12.8
CC(C)(O)c1cc2nc(-c3cnc(N)nc3)nc(N3CCOCC3)c2s1	148	33.5
CC(C)C[C@@H](C(=O)N[C@H](C(=O)OC1CCCC1)c1ccccc1)[C@H](O)C(=O)NO	1660	66.7
Cc1c(CN2CCN([S+](C)(=O)[O-])CC2)sc2c(N3CCOCC3)nc(-c3cnc(N)nc3)nc12	118	41.9
NC(=O)c1ccc2[nH]c(-c3ccc(Oc4ccc(Cl)cc4)cc3)nc2c1	2640	79.5
CC1=C2N=C([NH]C2=CC(=C1)N3CCOCC3)\C4=C(NC[C@@H](O)C5=CC=CC(=C5)Cl)\C=C/NC4=O	235	13.8
C[C@H]1CCC/C=C/C2C[C@H](O)C[C@H]2[C@H](O)/C=C/C(=O)O1 (stereo partly specified)	10.5	31.1
CC1(C)OC/2=C(\[C@H](NCC3=CC=CC=C3)[C@@H]1O)C(=O)C4=CC=CC=C4C2=O	7430	5.84
CC(/C=C/C(=O)NO)=C\[C@@H](C)C(=O)c1ccc(N(C)C)cc1	20900	26
